From ChEMBL document CHEMBL1148361, “Total synthesis and anti-tubulin activity of epi-c3 analogues of cryptophycin-24” (J Med Chem, 2004)
pIC50: −log10 of the molar value.

How the values were obtained:
MCF7 = assay: In vitro inhibitory activity of compound against induced cytotoxicity in MCF-7 cell line; assay type: functional, cell-based, Homo sapiens
[1] = In vitro inhibitory activity of compound against microtubule polymerization in a tubulin assembly assay; assay type: functional
NCI/ADR-RES = assay: In vitro inhibitory activity of compound against induced cytotoxicity in multidrug-resistant MCF-7/ADR breast cancer cell line; assay type: functional, cell-based, Homo sapiens
[2] = Resistance factor was expressed as the IC50 of resistance cell line / IC50 of sensitive cell line; assay type: functional

Row | SMILES | pIC50 (MCF7; Homo sapiens, MCF7) | pIC50 [1] | pIC50 (NCI/ADR-RES; Homo sapiens, NCI/ADR-RES) | Resistance factor [2] | pIC50 (MCF7; mcf7) | pIC50 (NCI/ADR-RES; nci/adr-res)
1 | COc1ccc(C[C@H]2NC(=O)/C=C/C[C@@H]([C@H](C)/C=C/c3ccccc3)OC(=O)[C@@H](CC(C)C)OC(=O)CCNC2=O)cc1 | < 7.60 | < 4.00 | < 7.60 |  |  | 
2 | COc1ccc(C[C@H]2NC(=O)/C=C/C[C@@H]([C@H](C)/C=C/c3ccccc3)OC(=O)[C@@H](CC(C)C)OC(=O)CCNC2=O)cc1Cl | < 7.60 | < 4.00 | < 7.60 |  |  | 
3 | COc1ccc(C[C@H]2NC(=O)/C=C/CC(C(C)C3OC3c3ccccc3)OC(=O)[C@@H](CC(C)C)OC(=O)CCNC2=O)cc1Cl (single isomer, unassigned) | 9.55 | 4.97 | 9.04 | 3.3 |  | 
4 | COc1ccc(C[C@H]2NC(=O)/C=C/C[C@@H](C(C)[C@H]3O[C@@H]3c3ccccc3)OC(=O)C(CC(C)C)OC(=O)CCNC2=O)cc1 (single isomer, unassigned) [ARENASTATIN A] |  | 4.86 |  | 27.3 | 7.06 | 5.62
5 | COc1ccc(C[C@H]2NC(=O)/C=C/C[C@@H](C(C)[C@H]3O[C@@H]3c3ccccc3)OC(=O)[C@H](CC(C)C)OC(=O)CCNC2=O)cc1 (single isomer, unassigned) [ARENASTATIN A] | 9.89 | 4.80 |  | 1.9 |  | 6.60
6 | COc1ccc(C[C@H]2NC(=O)/C=C/C[C@@H]([C@H](C)[C@H]3O[C@@H]3c3ccccc3)OC(=O)[C@H](CC(C)C)OC(=O)[C@H](C)CNC2=O)cc1Cl [CRYPTOPHYCIN A] | 11.05 | 5.47 | 10.74 | 2 |  | 
